Results from patent publication US20210379095A1, “Methods and Combination Therapy to Treat Biliary Tract Cancer” (ARRAY BIOPHARMA INC., priority 2018, published 2021).

Assays:
[1] = system: thymidylate synthase (TS); experiment: Western blot of protein expression in BTC cells; assay type: cell-based; settings: 48 hours
Protocol: The effect of binimetinib, 5-fluorouracil (5-FU), or combination of these drugs on cell viability was evaluated using eight BTC cell lines (SNU245, SNU308, SNU478, SNU869, SNU1079, SNU1196, TFK1, and HuCCT1). As capecitabine is converted to 5-FU in vivo, 5-FU was used as an […] of oral administration of capecitabine in this preclinical study in cell lines. […] Subsequently, cell viability was measured at 540 nm with a Multiskan GO microplate reader using a commercially available MTT assay, according to the manufacturer's directions. The Chou-Talalay method was used to assess a combination effect. […] Actin was included as a loading control.

[2] = system: programmed death-ligand 1 (PD-L1); experiment: Western blot of protein expression in BTC cells; assay type: cell-based; settings: 48 hours
Protocol: (§1) The effect of binimetinib, 5-fluorouracil (5-FU), or combination of these drugs on cell viability was evaluated using eight BTC cell lines (SNU245, SNU308, SNU478, SNU869, SNU1079, SNU1196, TFK1, and HuCCT1). As capecitabine is converted to 5-FU in vivo, 5-FU was used as an […] of oral administration of capecitabine in this preclinical study in cell lines. In brief, confluent monolayers, which had been grown in 96 well plates, were exposed to drugs for 72 hours. Subsequently, cell viability was measured at 540 nm with a Multiskan GO microplate reader using a commercially available MTT assay, according to the manufacturer's directions. The Chou-Talalay method was used to assess a combination effect. Cells were also treated with drugs for 48 hours and the expression of thymidylate synthase (TS), programmed death-ligand 1 (PD-L1), and β-actin was determined using western blot analysis according to a published protocol. Actin was included as a loading control.

[3] = system: advanced or metastatic BTC; settings: binimetinib monotherapy, advanced or metastatic BTC patients; cited from earlier work
[4] = system: BTC cell lines (SNU245, SNU308, SNU478, SNU869, SNU1079, SNU1196, TFK1, and HuCCT1); experiment: MTT cell viability assay; assay type: cell-based; settings: eight BTC cell lines, 72 hours exposure
Protocol: as §1

| SMILES | thymidylate synthase (TS) expression [1] | PD-L1 expression [2] | DCR [3] | ORR [3] | OS [3] | PFS [3] | cell viability [4] |
| --- | --- | --- | --- | --- | --- | --- | --- |
| O=c1[nH]cc(F)c(=O)[nH]1 [5-FU, 5-fluorouracil] | upregulated | induced PD-L1 expression | – | – | – | – | – |
| Cn1cnc2c(F)c(Nc3ccc(Br)cc3F)c(C(=O)NOCCO)cc21 [binimetinib, 6-(4-bromo-2-fluorophenylamino)-7-fluoro-3-methyl-3H-benzoimidazole-5-carboxylic acid (2-hydroxyethoxy)-amide] | downregulated | – | 51% | 8% | 4.8 months | 2.1 months | significant decreases in cell viability |
